Test results published in patent US5847159A, “1-[ω-(3,4-dihydro-2-naphthalenyl)alkyl]-cyclic amine derivatives, process for preparing the same, and pharmaceutical composition containing the same” (priority 1995, dated 1998).
Structures can show the parent of a compound that is named as a salt.

Tested on: rhythmic bladder contractions (micturition reflex)
Experiment: Inhibitory effect on rhythmic bladder contractions (micturition reflex)
Format: in vivo, Female Std-Wistar rats
Conditions: i.d., rat; for inhibition in vivo at 10 mg/kg / inhibition in vivo at 30 mg/kg: intraduodenal, mean over two hours, read-out: Inhibitory rate on contractile frequency; for inhibition in vivo at 10 mg/kg / ED50 / inhibition in vivo at 30 mg/kg: 2 h; for ED50: two hours, read-out: ED50, inhibitory effect on contractile frequency; for Potency on frequency of rhythmic bladder contractions relative to inaperisone hydrochloride (Compound A): compared with Compound A
Description: Inhibitory effect on rhythmic bladder contractions (micturition reflex)
The experiment was carried out according to the method of Maggi, C. […] It is generally accepted that the rhythmic bladder contractions evoked by instillation of saline solution into the bladder are mediated via the micturition reflex pathway like that of natural urination.
Female Std-Wistar rats weighing 160-190 g were used in groups of 3-4 animals. Under urethane anesthesia (1 g/kg, s.c.), both ureters were tied and cut at the side of kidney after a mid line incision of the abdomen. A cannula, connected to a syringe and a pressure transducer, was inserted into the bladder via the external urethral orifice and ligated around the proximal urethra. The animal was allowed to stay for about 30 minutes after the operation. The bladder was slowly filled with warm saline solution (0.4-1 ml) by means of a syringe until rhythmic contractions were induced. The change of the intravesical pressure was recorded on a recorder via a pressure transducer. After the rhythmic contractions became constant, test compounds dissolved or suspended in 0.5% aqueous tragacanth solution were administered via the cannula inserted for intraduodenal administration. The effect of each compound on the contractile frequency was investigated every 15 minutes till two hours after the administration.
The inhibitory rate on the contractile frequency (two hours) was expressed as the mean value of the inhibitory rates at an every 15-minute interval for two hours after the administration, which was determined based on the contractile frequency for 15 minutes before the administration.

SMILES	inhibition in vivo at 10 mg/kg [%]	Effect on the amplitude of contraction	other results
Cc1cc2c(cc1C)CCC(CCN1CCCCCCC1)=C2 [Ex. 45]	48	–	–
Fc1cc2c(cc1F)CCC(CCN1CCCC1)=C2 [Ex. 36, 1-[2-(6,7-difluoro-3,4-dihydro-2-naphthalenyl)ethyl]pyrrolidine]	–	suppressed the amplitude of contraction	ED50: 12.9 mg/kg; Potency on frequency of rhythmic bladder contractions relative to inaperisone hydrochloride (Compound A): ~3 times more potent
C1=C(CCN2CCCC2)CCc2cc3c(cc21)CCC3 [Ex. 47]	37	–	–
COc1cccc2c1CCC(CCN1CCCCC1)=C2 [Ex. 26]	–	suppressed the amplitude of contraction	ED50: 29.1 mg/kg
Fc1cccc2c1CCC(CCN1CCC(F)C1)=C2 (centres unmarked) [Ex. 53]	35	–	–
COc1ccc2c(c1)C=C(CCN1CCCC1)CC2 [Ex. 58, 1-[2-(3,4-dihydro-7-methoxy-2-naphthalenyl)ethyl]-pyrrolidine]	34	–	–
Fc1cccc2c1CCC(CCN1CCCCC1)=C2 [Ex. 8]	–	–	inhibition in vivo at 30 mg/kg: 62%
Cc1cc2c(cc1C)CCC(CCN1CCC(O)C1)=C2 (centres unmarked) [Ex. 66]	34	–	–
Fc1ccc2c(c1)C=C(CCN1CCCC1)CC2 [Ex. 12]	35	suppressed the amplitude of contraction	–
C1=C(CCCN2CCCCC2)CCc2ccccc21 [Ex. 3]	38	suppressed the amplitude of contraction	–
COc1cccc2c1CCC(CCCCCN1CCCCC1)=C2 [Ex. 32]	47	–	–
Cc1cc2c(cc1C)CCC(CCN1CCC1)=C2 [Ex. 41]	38	suppressed the amplitude of contraction	–
C1=C(CCCCN2CCCCC2)CCc2ccccc21 [Ex. 6]	42	–	–
Fc1ccc2c(c1)C=C(CCN1CCCCC1)CC2 [Ex. 13]	–	–	inhibition in vivo at 30 mg/kg: 77%
OC1CCN(CCC2=Cc3ccccc3CC2)C1 (centres unmarked) [Ex. 60, 1-[2-(3,4-Dihydro-2-naphthalenyl)ethyl]-3-hydroxypyrrolidine hydrochloride]	33	–	–
Fc1ccc(F)c2c1C=C(CCN1CCCC1)CC2 [Ex. 55]	43	–	–
Cc1ccc2c(c1)C=C(CCN1CCCC1)CC2 [Ex. 20]	–	suppressed the amplitude of contraction	inhibition in vivo at 30 mg/kg: 67%
COc1cc2c(cc1OC)CCC(CCN1CCCC1)=C2 [Ex. 62, 1-[2-(3,4-dihydro-6,7-dimethoxy-2-naphthalenyl)ethyl]-pyrrolidine]	–	suppressed the amplitude of contraction	ED50: 6.1 mg/kg; Potency on frequency of rhythmic bladder contractions relative to inaperisone hydrochloride (Compound A): approximately 5.7 times more potent

SMILES	inhibition in vivo at 10 mg/kg [%]	Effect on the amplitude of contraction	other results
Fc1ccc2c(c1)CCC(CCN1CCCCC1)=C2 [Ex. 11]	–	–	inhibition in vivo at 30 mg/kg: 60%
Clc1ccc2c(c1)C=C(CCN1CCCC1)CC2 [Ex. 15]	44	–	–
COc1ccc2c(c1)C=C(CCN1CCCCC1)CC2 [Ex. 34]	–	–	inhibition in vivo at 30 mg/kg: 65%
Fc1cc(F)c2c(c1)C=C(CCN1CCCC1)CC2 [Ex. 52, 1-[2-(5,7-difluoro-3,4-dihydro-2-naphthalenyl)ethyl]-pyrrolidine]	52	–	–
Cc1cc2c(cc1CO)CCC(CCN1CCCC1)=C2 [Ex. 72, 1-[2-(3,4-dihydro-6-hydroxymethyl-7-methyl-2-naphthalenyl)ethyl]pyrrolidin]	49	suppressed the amplitude of contraction	–
Clc1cccc2c1CCC(CCN1CCCC1)=C2 [Ex. 14]	49	–	–
Cc1cc2c(cc1C(=O)O)CCC(CCN1CCCC1)=C2 [Ex. 74, 1-[2-(6-carboxy-3,4-dihydro-7-methyl-2-naphthalenyl)-ethyl]pyrrolidine]	42	–	–
CCc1cc2c(cc1CC)CCC(CCN1CCCC1)=C2 [Ex. 46, 1-[2-(6,7-diethyl-3,4-dihydro-2-naphthalenyl)ethyl]pyrrolidine]	–	–	ED50: 12.4 mg/kg
COc1cc2c(cc1C)CCC(CCN1CCCC1)=C2 [Ex. 68, 1-[2-(3,4-dihydro-7-methoxy-6-methyl-2-naphthalenyl)ethyl]pyrrolidine]	–	suppressed the amplitude of contraction	ED50: 7.4 mg/kg; Potency on frequency of rhythmic bladder contractions relative to inaperisone hydrochloride (Compound A): ~4.7 times more potent
Fc1cccc2c1CCC(CCN1CCCCCC1)=C2 [Ex. 9]	47	–	–
Cc1cc2c(cc1C)CCC(CCN1C(C)CCC1C)=C2 (centres unmarked) [Ex. 50, 1-[2-(3,4-dihydro-6,7-dimethyl-2-naphthalenyl)ethyl]-2,5-dimethylpyrolidin]	50	suppressed the amplitude of contraction	–
C1=C(CCN2CCCC2)CCc2cc3c(cc21)OCO3 [Ex. 49]	46	suppressed the amplitude of contraction	–
COC(=O)c1ccc2c(c1)C=C(CCN1CCCC1)CC2 [Ex. 56, 1-[2-(3,4-Dihydro-7-methoxycarbonyl-2-naphthalenyl)ethyl]pyrrolidine]	34	suppressed the amplitude of contraction	–
Fc1ccc2c(c1)CCC(CCN1CCCC1)=C2 [Ex. 10]	33	–	–
C1=C(CCCCN2CCCC2)CCc2ccccc21 [Ex. 4]	–	suppressed the amplitude of contraction	ED50: 11.4 mg/kg; Potency on frequency of rhythmic bladder contractions relative to inaperisone hydrochloride (Compound A): ~3 times more potent
Fc1ccc2c(c1F)CCC(CCN1CCCC1)=C2 [Ex. 54]	43	–	–
Cc1cc2c(cc1C)CCC(CCN1CCCCCC1)=C2 [Ex. 44]	34	–	–
Cc1cccc2c1CCC(CCN1CCCCC1)=C2 [Ex. 18]	–	–	inhibition in vivo at 30 mg/kg: 51%
